Measurements: patent US20220030866A1, “CONJUGATES OF AUXIN ANALOGS” (The State of Israel, Ministry of Agriculture & Rural …, priority 2019, published 2022)

Legend:
Assay type in all cases: in vivo
[1] = tested on: DR5:venus marker; test: auxin activity by DR5:venus fluorescence in Arabidopsis plants; conditions: 10 μM
Procedure, shortened: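 Arabidopsis seedlings expressing nuclear DR5:venus, grown four days on MS medium, then transferred to plates with 10 μM compound for 24 h. Nuclear fluorescence imaged by confocal microscopy and averaged per segmented nucleus as auxin-activity readout; MS medium served as negative control.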

[2] = tested on: Arabidopsis seedlings; test: adventitious root formation in intact etiolated Arabidopsis seedlings; conditions: intact etiolated seedlings; 50 nM, FIG. 17 legend 10 μM for one hour
Experimental: Adventitious roots (ARs) were induced in intact plants, using previously described procedures [Gutierrez et al., Plant Cell 2009, 21:3119-3132; Abu-Abied et al., Plant J 2012, 71:787-799; Rasmussen et al., Plant Physiol 2012, 158:1976-1987]. Briefly, seeds were germinated on MS/0.8% agar plates supplemented with 3% sucrose. The plates were kept in the dark for 2 days at 4° C., then 5 days at 22° C. in the dark, 2 days in the light, 3 days in the dark and then additional 4 days in the light to complete 2 weeks when roots were counted using a stereoscope. Sensitivity to auxin and/or auxin analogs was determined by following root elongation on vertical plates. The 4-day-old seedlings were transferred to MS plates containing 0.05 or 0.5 μM IAA and the root length was measured after 5 days, including the number of LRs in each root and calculation of the LR density. Each treatment experiment included 10-15 plants and was repeated 3 times.
In a third assay utilizing an Arabidopsis model, induction of adventitious root AR formation in intact plants was examined in the presence of 50 nM of tested compounds, which included 5 days incubation in the dark, followed by a shift to the light, according to procedures described by Sorin et al. [Plant Cell 2005, 17:1343-1359].
Conjugates prepared as described herein were evaluated in an Arabidopsis rooting model, according to procedures such as described hereinabove. Seeds were germinated and kept in the dark for 4 days. The etiolated seedlings were then incubated for 1 hour in 10 μM of each compound and then transferred to vertical MS medium-containing plates.

[3] = tested on: mung bean cuttings; test: rooting of mung bean cuttings (number of adventitious roots per cutting); conditions: for effect on AR formation in mung bean cuttings, in words: tested at 2, 10 or 50 μM
Procedure, shortened: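 Readout was the number of adventitious roots per cutting in mung bean cuttings. Conjugates of 4-CPA, MCPA and 2-DP were tested alongside unconjugated IBA and 2-DP–glycine methyl ester.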

[4] = tested on: Arabidopsis seedlings; test: root elongation inhibition in Arabidopsis seedlings; conditions: for effect on root elongation relative to control, in words: after 5 days
[5] = tested on: Eucalyptus x trabutii cuttings; test: rooting of Eucalyptus x trabutii cuttings; conditions: for mean root number per cutting, E. x trabutii: K-IBA alone or with 100 μM compound; for callus formation in E. x trabutii / mean root number and mean root length, E. x trabutii, relative to IBA alone, in words / rooting rate of E. x trabutii compared with IBA alone, in words: K-IBA with 100 μM compound
Experimental: In order to investigate cloning of productive eucalyptus trees from cuttings, branches were excised from mature Eucalyptus x trabutii and Eucalyptus brachyphylla trees the field (in Kfar Pines, Israel)—selected based on their exceptional nectar production and honeybee attraction—placed in a humidified cooler box and brought to a climate-controlled greenhouse within 2 hours. Each cutting, 7 cm long, included three nodes with only two leaves remaining at its apical end. Two-thirds of each blade was excised to minimize evapotranspiration. The cutting bases were submerged for 1 minute in 6 grams/liter indole-3-butyric acid potassium salt (K-IBA), optionally supplemented with Compound 1s or 1t at a concentration of 100 μM. In addition, the leaves were sprayed with 100 μM of each compound in the presence of 0.05% Triton X-100 surfactant. Stock solutions of Compounds 1s and 1t were at a concentration of 100 mM in DMSO. The cuttings were planted in rooting medium containing peat, vermiculite and polystyrene flakes at a ratio of 1:2:3 respectively, on a heated rooting table under 90% humidity. Fungicides were applied to the rooting media on a weekly basis. Rooting percentage, number of roots per cutting and root length were measured after 1 and 2 weeks and after 1 and 2 months.

[6] = tested on: Arabidopsis seedlings; test: split petri dish assay, separate shoot or root application in etiolated Arabidopsis seedlings; conditions: 10 μM; for adventitious root formation, exposure of shoots compared to exposure of roots / lateral root formation, shoot application compared with root application: split dish
Description: The observation that AR enhancement in Eucalyptus cuttings was higher when 4-CPA conjugates were applied also to the leaves (as described in Example 3) prompted further investigation into the functions of shoot-derived 4-CPA. To this end, 4-CPA or Compounds 1p and it were applied specifically to roots or shoots of five-day old etiolated Arabidopsis seedlings using a split petri dish (as depicted in FIG. 26) and the effect on root elongation, lateral root (LR) formation and adventitious root (AR) formation was evaluated.
Arabidopsis plants were germinated and grown in the dark for 5 days, then then transferred to petri dishes with a partition in the middle. Each half of these plates contained either medium alone or with 10 μM of 4-CPA or Compound 1p or 1tl. The etiolated seedlings were put on the plates with their collet region on the partition such that either the hypocotyl and cotyledons, or the root or both were in touch with the medium containing the tested compound. Adventitious roots and lateral roots were counted and the length of the primary root was measured after a week.

[7] = 4 day old seedlings, 5 days on vertical plates

COC(=O)[C@H](Cc1c[nH]c2ccccc12)NC(=O)COc1ccc(Cl)cc1 [Compound 1t, 4-CPA-L-Trp]
DR5 fluorescence (auxin activity), in words [1]: the most potent conjugate | effect on root tip and root elongation zone [1]: loss of auxin activity at the root tip, and swelling of the root elongation zone | adventitious roots formed on average [2]: 4.7±0.9 | effect on AR formation in mung bean cuttings, in words [3]: induced rooting only at low concentrations | effect on root elongation relative to control, in words ([4]; 50 nM): inhibited root elongation relative to control | time course of root elongation inhibition ([4]; 50 nM, slight inhibition until day 3, complete from day 4): biphasic behavior | mean root number per cutting, E. x trabutii [5]: about 5 | callus formation in E. x trabutii [5]: no calluses were observed | mean root number and mean root length, E. x trabutii, relative to IBA alone, in words [5]: no apparent effect | rooting rate of E. x trabutii compared with IBA alone, in words [5]: considerably higher | effect on root growth of application to the shoot compared with application directly to the root ([6]; 24 hours on split dish): comparable | adventitious root formation, exposure of shoots compared to exposure of roots [6]: significantly more adventitious root formation | lateral root formation, shoot application compared with root application [6]: inhibited lateral root formation more efficiently than application to roots

O=C(O)COc1ccc(Cl)cc1 [Compound 4-CPA, 4-chloro-phenoxyacetic acid, reference compound]
DR5 fluorescence (auxin activity), in words [1]: promoted fluorescence most strongly | effect on root tip and root elongation zone [1]: loss of auxin activity at the root tip, and swelling of the root elongation zone | potency in promoting DR5 fluorescence relative to Compound 1t ([1]; fluorescent intensity): about 2 fold | adventitious roots formed on average [2]: 0.8±0.4 | appearance of the base of mung bean cuttings ([3]; FIGS. 4A, 4B): appeared swollen, but no AR developed | effect on AR formation in mung bean cuttings, in words [3]: induced a similar rooting rate only at the lowest tested concentration of 2 μM | concentration that inhibited root elongation significantly [4, 7]: 50 nM | concentration that inhibited root elongation totally [4, 7]: 100 nM | adventitious root formation, exposure of shoots compared to exposure of roots [6]: significantly more adventitious root formation | lateral root formation, shoot application compared with root application [6]: inhibited lateral root formation more efficiently than application to roots

COC(=O)[C@@H](Cc1c[nH]c2ccccc12)NC(=O)COc1ccc(Cl)cc1 [Compound 1s, 4-CPA-D-Trp]
DR5 fluorescence (auxin activity), in words [1]: significantly lower fluorescence | adventitious roots formed on average [2]: 0.5±0.3 | effect on AR formation in mung bean cuttings, in words [3]: induced rooting to a degree positively correlated with concentration | effect on root elongation relative to control, in words ([4]; 50 nM): did not affect root elongation | mean root number per cutting, E. x trabutii [5]: about 5 | callus formation in E. x trabutii [5]: no calluses were observed | mean root number and mean root length, E. x trabutii, relative to IBA alone, in words [5]: no apparent effect | rooting rate of E. x trabutii compared with IBA alone, in words [5]: considerably higher
